In US6472348B1, “Pyridone derivatives and herbicides” (Kumiai Chemical Industry Co., Ltd., priority 1996, dated 2002):

Experiments:
Format in all cases: in vivo
Diaitaria ciliaris (Di) [1] = experiment: Test Example 5: crop plant selectivity by upland field soil treatment (wheat), herbicidal effects; conditions: dose 1.6 g ai/10a, 21st day after application
Protocol: (Test on Crop Plant Selectivity by Upland Field Soil Treatment)
In a plastic pot (surface area: 600 cm^2) filled with sand, wheat (Tr), Diaitaria ciliaris (Di), green foxtail (Se), pale smartweed (Po), slender amaranth (Am), common lambsquarters (Ch) and China jute (Ab) were sown and covered with soil. […] The plants were then cultured in a green house, and the evaluation of the herbicidal effects and phytotoxicity was conducted on the 21st day after the application in accordance with the standards as identified in Table 47. Symbol—represents “not tested”.

pale smartweed (Po) [2] = experiment: Test Example 2: herbicidal effects by upland field soil treatment; conditions: 100 g of the active ingredient per 10 ares, evaluated on the 21st day after application;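 further: grade of growth control; 5 = at least 90%; 4 = 70 to 90%; 3 = 50 to 70%; 2 = 30 to 50%; 1 = 10 to 30%; 0 = under 10%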
Description: (§1) (Test on Herbicidal Effects by Upland Field Soil Treatment)

barnyardgrass (Ec) [3] = experiment: as above; conditions: 100 g of the active ingredient per 10 ares, evaluated on the 21st day after application
Description: as §1

[4] = system: common lambsquarters (Ch); experiment: as above; conditions: 100 g of the active ingredient per 10 ares, evaluated on the 21st day after application
Description: as §1

Digitaria ciliaris (Di) = experiment: as above; conditions: 100 g of the active ingredient per 10 ares, evaluated on the 21st day after application;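 further: grade of growth control; 5 = at least 90%; 4 = 70 to 90%; 3 = 50 to 70%; 2 = 30 to 50%; 1 = 10 to 30%; 0 = under 10%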
Description: as §1

slender amaranth (Am) [5] = experiment: as above; conditions: 100 g of the active ingredient per 10 ares, evaluated on the 21st day after application
Description: as §1

rice flatsedge (Ci) [6] = experiment: as above; conditions: 100 g of the active ingredient per 10 ares, evaluated on the 21st day after application
Description: as §1

barnyardgrass (Ec) [7] = experiment: Test Example 1: herbicidal effects by paddy field soil treatment; conditions: 100 g of the active ingredient per 10 ares, 21st day after the application, index 0-5 of Table 47;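 further: grade of growth control; 5 = at least 90%; 4 = 70 to 90%; 3 = 50 to 70%; 2 = 30 to 50%; 1 = 10 to 30%; 0 = under 10%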
Outline: (§2)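 Scoring of herbicidal effect came 21 days after application of 100 g active ingredient per 10 ares to flooded (3 cm) paddy-soil pots sown with barnyardgrass, monochoria and bulrush, kept in a greenhouse.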

monochoria (Mo) = experiment: as above; conditions: 100 g of the active ingredient per 10 ares, 21st day after the application, index 0-5 of Table 47;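 further: grade of growth control; 5 = at least 90%; 4 = 70 to 90%; 3 = 50 to 70%; 2 = 30 to 50%; 1 = 10 to 30%; 0 = under 10%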
Outline: as §2

bulrush (Sc) = experiment: as above; conditions: 100 g of the active ingredient per 10 ares, 21st day after the application, index 0-5 of Table 47
Outline: as §2

pale smartweed (Po) [8] = experiment: Test Example 5: crop plant selectivity by upland field soil treatment (wheat), herbicidal effects; design: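 grade of growth control; 5 = at least 90%; 4 = 70 to 90%; 3 = 50 to 70%; 2 = 30 to 50%; 1 = 10 to 30%; 0 = under 10%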; conditions: dose 1.6 g ai/10a, 21st day after application
Outline: (§3)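 Pots of sand sown with wheat and weeds (incl. Digitaria ciliaris, green foxtail, slender amaranth), seeds covered with soil, soil-applied treatment. Grown in greenhouse; herbicidal effect and crop phytotoxicity scored visually on day 21 after application against a rating scale.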

China jute (Ab) = experiment: as above; design: scale not given here; conditions: dose 1.6 g ai/10a, 21st day after application
Outline: as §3

[9] = system: common lambsquarters (Ch); experiment: as above; design: scale not given here; conditions: dose 1.6 g ai/10a, 21st day after application
Outline: as §3

green foxtail (Se) = experiment: as above; design: scale not given here; conditions: dose 1.6 g ai/10a, 21st day after application
Outline: as §3

slender amaranth (Am) [10] = experiment: as above; design: scale not given here; conditions: dose 1.6 g ai/10a, 21st day after application
Outline: as §3

wheat (Tr) = experiment: Test Example 5: crop plant selectivity by upland field soil treatment (wheat), phytotoxicity; design: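 grade of crop injury; 5 = at least 90%; 4 = 70 to 90%; 3 = 50 to 70%; 2 = 30 to 50%; 1 = 10 to 30%; 0 = under 10%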; conditions: dose 1.6 g ai/10a, 21st day after application
Outline: as §3

pale smartweed (Po) [11] = experiment: Test Example 3: herbicidal effects by upland field foliage treatment; design: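 grade of growth control; 5 = at least 90%; 4 = 70 to 90%; 3 = 50 to 70%; 2 = 30 to 50%; 1 = 10 to 30%; 0 = under 10%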; conditions: 100 g active ingredient per 10 ares, evaluated 14th day after treatment
Outline: (§4)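 Weeds were sown in sand-filled pots (surface area: 120 cm^2), covered with soil and grown in a greenhouse for 2 weeks before foliar treatment. Plants then stayed in the greenhouse, and herbicidal effect was scored against graded standards on the 14th day after treatment.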

barnyardgrass (Ec) [12] = experiment: as above; design: scale not given here; conditions: 100 g active ingredient per 10 ares, evaluated 14th day after treatment
Outline: as §4

[13] = system: common lambsquarters (Ch); experiment: as above; design: scale not given here; conditions: 100 g active ingredient per 10 ares, evaluated 14th day after treatment
Outline: as §4

Diaitaria ciliaris (Di) [14] = experiment: as above; design: scale not given here; conditions: 100 g active ingredient per 10 ares, evaluated 14th day after treatment
Outline: as §4

slender amaranth (Am) [15] = experiment: as above; design: scale not given here; conditions: 100 g active ingredient per 10 ares, evaluated 14th day after treatment
Outline: as §4

rice flatsedge (Ci) [16] = experiment: as above; design: scale not given here; conditions: 100 g active ingredient per 10 ares, evaluated 14th day after treatment
Outline: as §4

SMILES: Cn1c(C(F)(F)F)ccc(-c2cc3c(cc2F)OCC(=O)N3)c1=O [Compound No. 2-4, 3-(7-fluoro-2,3-dihydro-1,4-benzoxazin-3-on-6-yl)-1-methyl-6-trifluoromethyl-2(1H)-pyridone]
- Herbicidal effects Di (Diaitaria ciliaris (Di) [1]): 5
- Herbicidal effects Po (pale smartweed (Po) [2]): 5
- Herbicidal effects Ec (barnyardgrass (Ec) [3]): 5
- Herbicidal effects Ch [4]: 5
- Herbicidal effects Di (Digitaria ciliaris (Di)): 5
- Herbicidal effects Am (slender amaranth (Am) [5]): 5
- Herbicidal effects Ci (rice flatsedge (Ci) [6]): 5
- Herbicidal effects Ec (barnyardgrass (Ec) [7]): 5
- Herbicidal effects Mo (monochoria (Mo)): 5
- Herbicidal effects Sc (bulrush (Sc)): 5
- Herbicidal effects Po (pale smartweed (Po) [8]): 5
- Herbicidal effects Ab (China jute (Ab)): 3
- Herbicidal effects Ch [9]: 4
- Herbicidal effects Se (green foxtail (Se)): 5
- Herbicidal effects Am (slender amaranth (Am) [10]): 5
- Phytotoxicity Tr (wheat (Tr)): 0
- Herbicidal effects Po (pale smartweed (Po) [11]): 5
- Herbicidal effects Ec (barnyardgrass (Ec) [12]): 5
- Herbicidal effects Ch [13]: 5
- Herbicidal effects Di (Diaitaria ciliaris (Di) [14]): 5
- Herbicidal effects Am (slender amaranth (Am) [15]): 5
- Herbicidal effects Ci (rice flatsedge (Ci) [16]): 5
